Measured values as given in ChEMBL document CHEMBL1201862, “PubChem BioAssay data set” (2004).
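Tested at 5 concentrations; 48 h exposure; 96-well plates; endpoints linearly interpolated, else capped at highest concentration. Here, GI50 denotes the concentration required for 50% inhibition of growth.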 Activity calls are given as the source filed them. Cut-off read from the data, not from the text of the source: active = GI50 up to about 1.1 µM and inactive = higher.

Assays:
Test in all cases: NCI tumour cell line growth inhibition, 48 h
786-0 = tested on: 786-0
A498 = tested on: A498
A549 = tested on: A549
ACHN = tested on: ACHN
BT-549 = tested on: BT-549
CAKI-1 = tested on: CAKI-1
COLO 205 = tested on: COLO 205
DU-145 = tested on: DU-145
EKVX = tested on: EKVX
HCC 2998 = tested on: HCC 2998
HCT-116 = tested on: HCT-116
HCT-15 = tested on: HCT-15
HOP-62 = tested on: HOP-62
HOP-92 = tested on: HOP-92
HT-29 = tested on: HT-29
Hs-578T = tested on: Hs-578T
IGROV-1 = tested on: IGROV-1
K562 = tested on: K562
KM12 = tested on: KM12
LOX IMVI = tested on: LOX IMVI
M14 = tested on: M14
MCF7 = tested on: MCF7
MDA-MB-231 = tested on: MDA-MB-231
MDA-MB-435 = tested on: MDA-MB-435
MDA-N = tested on: MDA-N
Malme-3M = tested on: Malme-3M
NCI-H226 = tested on: NCI-H226
NCI-H23 = tested on: NCI-H23
NCI-H460 = tested on: NCI-H460
NCI-H522 = tested on: NCI-H522
NCI/ADR-RES = tested on: NCI/ADR-RES
OVCAR-3 = tested on: OVCAR-3
OVCAR-4 = tested on: OVCAR-4
OVCAR-5 = tested on: OVCAR-5
OVCAR-8 = tested on: OVCAR-8
PC-3 = tested on: PC-3
RPMI-8226 = tested on: RPMI-8226
RXF 393 = tested on: RXF 393
SF-268 = tested on: SF-268
SF-295 = tested on: SF-295
SF-539 = tested on: SF-539
SK-MEL-28 = tested on: SK-MEL-28
SK-MEL-2 = tested on: SK-MEL-2
SK-MEL-5 = tested on: SK-MEL-5
SK-OV-3 = tested on: SK-OV-3
SN12C = tested on: SN12C
SNB-19 = tested on: SNB-19
SNB-75 = tested on: SNB-75
SR = tested on: SR
SW-620 = tested on: SW-620
T47D = tested on: T47D
TK-10 = tested on: TK-10
U-251 = tested on: U-251
UACC-257 = tested on: UACC-257
UACC-62 = tested on: UACC-62
UO-31 = tested on: UO-31
CCRF-CEM = tested on: CCRF-CEM
HL-60 = tested on: HL-60
MOLT-4 = tested on: MOLT-4

Measured: GI50

N=C(N)SCc1cccc(-c2nc3ccccc3c(=O)o2)c1
> 100 µM: HCT-15
inactive: 786-0 > 100 µM | A498 > 100 µM | A549 > 100 µM | ACHN > 100 µM | BT-549 > 100 µM | CAKI-1 > 100 µM | COLO 205 > 100 µM | DU-145 > 100 µM | EKVX > 100 µM | HCC 2998 > 100 µM | HCT-116 > 100 µM | HOP-62 > 100 µM | HOP-92 > 100 µM | HT-29 > 100 µM | Hs-578T > 100 µM | IGROV-1 > 100 µM | K562 > 100 µM | KM12 > 100 µM | LOX IMVI > 100 µM | M14 > 100 µM | MCF7 > 100 µM | MDA-MB-231 > 100 µM | MDA-MB-435 > 100 µM | MDA-N > 100 µM | Malme-3M > 100 µM | NCI-H226 > 100 µM | NCI-H23 > 100 µM | NCI-H460 > 100 µM | NCI-H522 > 100 µM | NCI/ADR-RES > 100 µM | OVCAR-3 > 100 µM | OVCAR-4 > 100 µM | OVCAR-5 > 100 µM | OVCAR-8 > 100 µM | PC-3 > 100 µM | RPMI-8226 > 100 µM | RXF 393 > 100 µM | SF-268 > 100 µM | SF-295 > 100 µM | SF-539 > 100 µM | SK-MEL-28 > 100 µM | SK-MEL-2 > 100 µM | SK-MEL-5 > 100 µM | SK-OV-3 > 100 µM | SN12C > 100 µM | SNB-19 > 100 µM | SNB-75 > 100 µM | SR 95.5 µM | SW-620 > 100 µM | T47D > 100 µM | TK-10 > 100 µM | U-251 > 100 µM | UACC-257 > 100 µM | UACC-62 > 100 µM | UO-31 > 100 µM

Cc1c(C(=O)N2CCN(c3ccc([N+](=O)[O-])cc3)CC2)[n+]([O-])c2cc(Cl)c(Cl)cc2[n+]1[O-]
inactive: 786-0 16.5 µM | A498 7.19 µM | A549 20.2 µM | ACHN 13.5 µM | BT-549 16.9 µM | CAKI-1 25.1 µM | CCRF-CEM > 100 µM | COLO 205 26.4 µM | DU-145 19.8 µM | EKVX 20.6 µM | HCC 2998 13.2 µM | HCT-116 19 µM | HL-60 28.4 µM | HOP-62 21.7 µM | HOP-92 15.2 µM | HT-29 25.2 µM | Hs-578T 22.6 µM | IGROV-1 22.2 µM | K562 26.5 µM | KM12 36.8 µM | LOX IMVI 29.9 µM | M14 27.1 µM | MCF7 16.2 µM | MDA-MB-231 21.2 µM | MDA-MB-435 35.7 µM | MDA-N 26.7 µM | MOLT-4 72.8 µM | Malme-3M 21.8 µM | NCI-H23 14.8 µM | NCI-H460 19.5 µM | NCI-H522 16.7 µM | NCI/ADR-RES 16.8 µM | OVCAR-3 22.8 µM | OVCAR-4 10.8 µM | OVCAR-5 21.6 µM | OVCAR-8 16.9 µM | PC-3 19.1 µM | RPMI-8226 15.6 µM | RXF 393 13.6 µM | SF-268 17.3 µM | SF-295 19.1 µM | SF-539 18.6 µM | SK-MEL-28 26.4 µM | SK-MEL-2 31.3 µM | SK-MEL-5 10.9 µM | SK-OV-3 15.9 µM | SN12C 18.4 µM | SNB-19 18.3 µM | SR 21.2 µM | SW-620 21.6 µM | T47D 17.1 µM | TK-10 21.6 µM | U-251 20.9 µM | UACC-257 35.6 µM | UACC-62 15.8 µM
17.1 µM: HCT-15
